Measured values reported in patent US7902373B2 (Pfizer Inc, priority 2006, dated 2011).
pIC50: −log10 of the molar value.

What follows are compounds tested against human recombinant H-PGDS (Homo sapiens, UniProt O60760) (assay: Fluorescence intensity h-PGDS TBA enzyme assay). Conditions: Examples up to 622 (and 3a, 3b).
Type: biochemical

Chain of human recombinant H-PGDS (O60760 whole entry): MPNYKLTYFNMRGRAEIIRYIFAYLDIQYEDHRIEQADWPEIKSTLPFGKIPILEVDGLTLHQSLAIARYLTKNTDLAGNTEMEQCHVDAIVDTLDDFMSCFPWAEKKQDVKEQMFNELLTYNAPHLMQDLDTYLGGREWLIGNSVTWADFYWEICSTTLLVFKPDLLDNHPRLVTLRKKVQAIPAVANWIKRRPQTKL

Row | Compound | pIC50
1 | COC(=O)c1ccc2[nH]cc(CN3CCC(NC(=O)c4ccc(-c5cccc(F)c5)nc4)CC3)c2c1 [Example 311, Methyl 3-{[4-({[6-(3-fluorophenyl)pyridin-3-yl]carbonyl}amino)piperidin-1-yl]methyl}-1H-indole-5-carboxylate] | 8.76
2 | O=C(NC1CCN(CCCC(F)(F)F)CC1)c1ccc(-c2cccc(F)c2)nc1 [Example 312, 6-(3-Fluorophenyl)-N-[1-(4,4,4-trifluorobutyl)piperidin-4-yl]nicotinamide] | 8.97
3 | O=C(NC1CCN(Cc2ccc3c(c2)CCO3)CC1)c1ccc(-c2cccc(F)c2)nc1 [Example 313, N-[1-(2,3-Dihydro-1-benzofuran-5-ylmethyl)piperidin-4-yl]-6-(3-fluorophenyl)nicotinamide] | 8.67
4 | Cn1nc(C(F)(F)F)c(CN2CCC(NC(=O)c3ccc(-c4cccc(F)c4)nc3)CC2)c1Cl [Example 314, N-(1-{[5-Chloro-1-methyl-3-(trifluoromethyl)-1H-pyrazol-4-yl]methyl}piperidin-4-yl)-6-(3-fluorophenyl)nicotinamide] | 9.62
5 | O=C(NC1CCN(Cc2cccc(OC(F)F)c2)CC1)c1ccc(-c2cccc(F)c2)nc1 [Example 315, N-{1-[3-(Difluoromethoxy)benzyl]piperidin-4-yl}-6-(3-fluorophenyl)nicotinamide] | 9.26
6 | CCOc1c(CN2CCC(NC(=O)c3ccc(-c4cccc(F)c4)nc3)CC2)cccc1OC [Example 316, N-[1-(2-Ethoxy-3-methoxybenzyl)piperidin-4-yl]-6-(3-fluorophenyl)nicotinamide] | 8.87
7 | O=C(NC1CCN(Cc2ccc(C(F)(F)F)nc2)CC1)c1ccc(-c2cccc(F)c2)nc1 [Example 317, 6-(3-Fluorophenyl)-N-(1-{[6-(trifluoromethyl)pyridin-3-yl]methyl}piperidin-4-yl)nicotinamide] | 8.68
8 | Cc1ccc(CN2CCC(NC(=O)c3ccc(-c4cccc(F)c4)nc3)CC2)c(F)c1F [Example 318, N-[1-(2,3-Difluoro-4-methylbenzyl)piperidin-4-yl]-6-(3-fluorophenyl)nicotinamide] | 8.93
9 | Cc1nn(C)c(Cl)c1CN1CCC(NC(=O)c2ccc(-c3cccc(F)c3)nc2)CC1 [Example 319, N-{1-[(5-Chloro-1,3-dimethyl-1H-pyrazol-4-yl)methyl]piperidin-4-yl}-6-(3-fluorophenyl)nicotinamide] | 9.42
10 | O=C(NC1CCN(Cc2c[nH]c(-c3ccccc3)n2)CC1)c1ccc(-c2cccc(F)c2)nc1 [Example 320, 6-(3-Fluorophenyl)-N-{1-[(2-phenyl-1H-imidazol-4-yl)methyl]piperidin-4-yl}nicotinamide] | 8.63
11 | Cn1cc(Br)c(CN2CCC(NC(=O)c3ccc(-c4cccc(F)c4)nc3)CC2)n1 [Example 321, N-{1-[(4-Bromo-1-methyl-1H-pyrazol-3-yl)methyl]piperidin-4-yl}-6-(3-fluorophenyl)nicotinamide] | 9.44
12 | COc1ccc(CCCN2CCC(NC(=O)c3ccc(-c4cccc(F)c4)nc3)CC2)cc1 [Example 322, 6-(3-Fluorophenyl)-N-{1-[3-(4-methoxyphenyl)propyl]piperidin-4-yl}nicotinamide] | 9.13
13 | COc1ccc(F)c(CN2CCC(NC(=O)c3ccc(-c4cccc(F)c4)nc3)CC2)c1 [Example 323, N-[1-(2-Fluoro-5-methoxybenzyl)piperidin-4-yl]-6-(3-fluorophenyl)nicotinamide] | 9.21
14 | COc1ccc(CN2CCC(NC(=O)c3ccc(-c4cccc(F)c4)nc3)CC2)c(F)c1 [Example 324, N-[1-(2-Fluoro-4-methoxybenzyl)piperidin-4-yl]-6-(3-fluorophenyl)nicotinamide] | 9.27
15 | CCCCCN1CCC(NC(=O)c2ccc(-c3cccc(F)c3)nc2)CC1 [Example 325, 6-(3-Fluorophenyl)-N-(1-pentylpiperidin-4-yl)nicotinamide] | 8.40
16 | CC(C)Oc1ccccc1CN1CCC(NC(=O)c2ccc(-c3cccc(F)c3)nc2)CC1 [Example 326, 6-(3-Fluorophenyl)-N-[1-(2-isopropoxybenzyl)piperidin-4-yl]nicotinamide] | 8.61
17 | COCc1cc(CN2CCC(NC(=O)c3ccc(-c4cccc(F)c4)nc3)CC2)ccc1OC [Example 327, 6-(3-Fluorophenyl)-N-{1-[4-methoxy-3-(methoxymethyl)benzyl]piperidin-4-yl}nicotinamide] | 8.81
18 | Cc1nn(C)cc1CN1CCC(NC(=O)c2ccc(-c3cccc(F)c3)nc2)CC1 [Example 328, N-{1-[(1,3-Dimethyl-1H-pyrazol-4-yl)methyl]piperidin-4-yl}-6-(3-fluorophenyl)nicotinamide] | 9.25
19 | CCn1ncc(CN2CCC(NC(=O)c3ccc(-c4cccc(F)c4)nc3)CC2)c1C [Example 329, N-{1-[(1-Ethyl-5-methyl-1H-pyrazol-4-yl)methyl]piperidin-4-yl}-6-(3-fluorophenyl)nicotinamide] | 8.71
20 | O=C(NC1CCN(Cc2ccc(-c3ncccn3)cc2)CC1)c1ccc(-c2cccc(F)c2)nc1 [Example 330, 6-(3-Fluorophenyl)-N-[1-(4-pyrimidin-2-ylbenzyl)piperidin-4-yl]nicotinamide] | 8.77

Row | Compound | pIC50
21 | O=C(NC1CCN(Cc2cc(F)cc(F)c2F)CC1)c1ccc(-c2cccc(F)c2)nc1 [Example 331, 6-(3-Fluorophenyl)-N-[1-(2,3,5-trifluorobenzyl)piperidin-4-yl]nicotinamide] | 8.57
22 | O=C(NC1CCN(Cc2cc(F)c(F)c(F)c2)CC1)c1ccc(-c2cccc(F)c2)nc1 [Example 332, 6-(3-fluorophenyl)-N-[1-(345-trifluorobenzyl)piperidin-4-yl]nicotinamide] | 8.92
23 | CC(C)(C)OC(=O)N1CCCC(CN2CCC(NC(=O)c3ccc(-c4cccc(F)c4)nc3)CC2)C1 (stereo not drawn) [Example 333, tert-Butyl 3-{[4-({[6-(3-fluorophenyl)pyridin-3-yl]carbonyl}amino)piperidin-1-yl]methyl}piperidine-1-carboxylate] | 8.98
24 | CC(C)(C)OC(=O)NC1(CN2CCC(NC(=O)c3ccc(-c4cccc(F)c4)nc3)CC2)CCC1 [Example 334, tert-Butyl (1-{[4-({[6-(3-fluorophenyl)pyridin-3-yl]carbonyl}amino)piperidin-1-yl]methyl}cyclobutyl)carbamate] | 8.56
25 | Cc1nn(-c2ccccc2)c(C)c1CN1CCC(NC(=O)c2ccc(-c3cccc(F)c3)nc2)CC1 [Example 335, N-{1-[(3,5-Dimethyl-1-phenyl-1H-pyrazol-4-yl)methyl]piperidin-4-yl}-6-(3-fluorophenyl)nicotinamide] | 9.11
26 | CC(CCCC(C)(C)O)CCN1CCC(NC(=O)c2ccc(-c3cccc(F)c3)nc2)CC1 (stereo not drawn) [Example 336, 6-(3-Fluorophenyl)-N-[1-(7-hydroxy-3,7-dimethyloctyl)piperidin-4-yl]nicotinamide] | 8.74
27 | O=C(NC1CCN(Cc2nc3ccccc3[nH]2)CC1)c1ccc(-c2cccc(F)c2)nc1 [Example 337, N-[1-(1H-Benzimidazol-2-ylmethyl)piperidin-4-yl]-6-(3-fluorophenyl)nicotinamide] | 8.85
28 | CCOc1ccc2nc(CN3CCC(NC(=O)c4ccc(-c5cccc(F)c5)nc4)CC3)ccc2c1 [Example 338] | 7.20
29 | COC(=O)Cn1cc(CN2CCC(NC(=O)c3ccc(-c4cccc(F)c4)nc3)CC2)c2ccccc21 [Example 339, Methyl (3-{[4-({[6-(3-fluorophenyl)pyridin-3-yl]carbonyl}amino)piperidin-1-yl]methyl}-1H-indol-1-yl)acetate] | 8.93
30 | O=C(NC1CCN(Cc2nc3c(s2)CCCC3)CC1)c1ccc(-c2cccc(F)c2)nc1 [Example 340, 6-(3-Fluorophenyl)-N-[1-(4,5,6,7-tetrahydro-1,3-benzothiazol-2-ylmethyl)piperidin-4-yl]nicotinamide] | 8.93
31 | O=C(NC1CCN(CC2=Cc3ccccc3OC2)CC1)c1ccc(-c2cccc(F)c2)nc1 [Example 341, N-[1-(2H-Chromen-3-ylmethyl)piperidin-4-yl]-6-(3-fluorophenyl)nicotinamide] | 9.31
32 | O=C(NC1CCN(Cc2ccccc2-c2cncnc2)CC1)c1ccc(-c2cccc(F)c2)nc1 [Example 342, 6-(3-Fluorophenyl)-N-[1-(2-pyrimidin-5-ylbenzyl)piperidin-4-yl]nicotinamide] | 9.55
33 | O=C(NC1CCN(Cc2cccn3cc(Br)nc23)CC1)c1ccc(-c2cccc(F)c2)nc1 [Example 343, N-{1-[(2-Bromoimidazo[1,2-a]pyridin-8-yl)methyl]piperidin-4-yl}-6-(3-fluorophenyl)nicotinamide] | 8.72
34 | Cc1onc(-c2ccccc2)c1CN1CCC(NC(=O)c2ccc(-c3cccc(F)c3)nc2)CC1 [Example 344, 6-(3-Fluorophenyl)-N-{1-[(5-methyl-3-phenylisoxazol-4-yl)methyl]piperidin-4-yl}nicotinamide] | 9.76
35 | CC(C)(C)OC(=O)N1CCC(CN2CCC(NC(=O)c3ccc(-c4cccc(F)c4)nc3)CC2)C1 (stereo not drawn) [Example 345, tert-Butyl 3-{[4-({[6-(3-fluorophenyl)pyridin-3-yl]carbonyl}amino)piperidin-1-yl]methyl}pyrrolidine-1-carboxylate] | 9.29
36 | CC(C)(C)C(=O)Nc1ncccc1CN1CCC(NC(=O)c2ccc(-c3cccc(F)c3)nc2)CC1 [Example 346, N-[1-({2-[(2,2-Dimethylpropanoyl)amino]pyridin-3-yl}methyl)piperidin-4-yl]-6-(3-fluorophenyl)nicotinamide] | 8.39
37 | CC(C)(CNC(=O)OC(C)(C)C)CN1CCC(NC(=O)c2ccc(-c3cccc(F)c3)nc2)CC1 [Example 347, tert-Butyl {3-[4-({[6-(3-fluorophenyl)pyridin-3-yl]carbonyl}amino)piperidin-1-yl]-2,2-dimethylpropyl}carbamate] | 9.24
38 | O=C(NC1CCN(Cc2c(F)c(F)cc(F)c2F)CC1)c1ccc(-c2cccc(F)c2)nc1 [Example 348, 6-(3-Fluorophenyl)-N-[1-(2,3,5,6-tetrafluorobenzyl)piperidin-4-yl]nicotinamide] | 9.21
39 | O=C(NC1CCN(Cc2c[nH]c3c(F)c(F)c(F)c(F)c23)CC1)c1ccc(-c2cccc(F)c2)nc1 [Example 349, 6-(3-Fluorophenyl)-N-{1-[(4,5,6,7-tetrafluoro-1H-indol-3-yl)methyl]piperidin-4-yl}nicotinamide] | 8.53
